What was measured:
[1] = target: T1, ER (Homo sapiens, UniProt P03372); experiment: ER antagonism (T47D ERE luciferase), T47d-kb-Luc cells; format: cell-based; details: read-out: IC50 (ER antagonistm)
T1 construct: endogenous in cells; host or cells: T47d-kb-Luc (T47D stably transfected with a luciferase reporter gene only)
T1 sequence (P03372 1-595): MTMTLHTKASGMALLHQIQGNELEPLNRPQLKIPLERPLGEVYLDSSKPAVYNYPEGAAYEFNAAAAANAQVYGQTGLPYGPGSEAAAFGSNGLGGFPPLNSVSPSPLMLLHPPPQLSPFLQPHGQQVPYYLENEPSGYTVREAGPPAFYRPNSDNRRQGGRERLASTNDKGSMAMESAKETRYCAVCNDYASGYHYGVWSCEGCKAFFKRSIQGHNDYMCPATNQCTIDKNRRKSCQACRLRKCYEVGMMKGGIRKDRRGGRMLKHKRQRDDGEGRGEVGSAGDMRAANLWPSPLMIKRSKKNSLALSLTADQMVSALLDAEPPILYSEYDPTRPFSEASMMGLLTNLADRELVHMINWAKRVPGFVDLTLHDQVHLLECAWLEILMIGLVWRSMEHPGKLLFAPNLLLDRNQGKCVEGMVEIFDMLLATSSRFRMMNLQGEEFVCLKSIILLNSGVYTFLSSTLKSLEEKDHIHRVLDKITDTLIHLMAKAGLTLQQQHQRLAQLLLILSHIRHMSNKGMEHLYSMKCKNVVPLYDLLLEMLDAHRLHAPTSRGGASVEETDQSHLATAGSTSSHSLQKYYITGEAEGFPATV
In short: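 Stably transfected T47d-kb-Luc human breast cancer cells were used, and antagonism was measured as inhibition of estradiol-driven activity. Data were normalised to the estradiol control. Five concentrations were tested in quadruplicate across at least three experiments.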

[2] = system: MCF-7 breast cancer cells; experiment: MCF-7 proliferation / cell viability assay; format: cell-based; details: Homo sapiens, MCF7; MCF-7 proliferation with 0.1 nM 17-beta estradiol; read-out: IC50 (anti-proliferation)
In short: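 MCF-7 cells in 5% FBS DMEM were exposed for 5 days to compound at 6 doses from 10^−10 M to 10^−5 M, with DMSO as vehicle. Viable cells were counted by Coulter counter. Survival ratio = treated/vehicle viable cell number, vehicle set to 100%.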

[3] = target: T2, ERα (Homo sapiens, UniProt P03372); experiment: ER degradation in MCF-7 cells (Western blot); format: cell-based; details: for DC50: ER degradation, 24 hours; for Dmax: MCF7, Maximal ER degradation, read-out: Dmax
T2 construct: endogenous in cells; host or cells: MCF-7
T2 sequence (P03372 1-595): T1 sequence (P03372 1-595)
In short: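 MCF-7 cells treated with a range of compound concentrations for 24 hours, then lysed; 50 μg protein probed for ERα by Western blot with infrared imaging. DC50 is concentration giving 50% ER reduction; Dmax is the highest percentage reduction over the range tested.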

[4] = system: ST1799 PDX tumor; experiment: ST1799 patient derived breast tumor xenograft; format: in vivo; details: single agent versus vehicle control, p=0.0323; athymic nude female mice
Source text: In Vivo Efficacy of Exemplary Compound 69 in ST1799 Patient Derived Breast Tumor Xenocraft
Patient-Derived Xenograft tumor fragments were harvested from host animals and implanted into 6-12 week old athymic nude female mice (Charles River NU(NCr)-Foxn1^nu). Treatment initiated at a mean tumor volume of approximately 175-300 mm^3.

IC50 [1] [nM] | IC50 [2] [nM] | DC50 [3] [nM] | Dmax [3] [%] | Structure (SMILES) | tumor growth inhibition [4]
< 10 | < 10 | < 10 | > 90 | CC/C(=C(/c1ccc(OCCN2CCN(CC3CCN(c4ccc5c(c4)CN([C@H]4CCC(=O)NC4=O)C5=O)CC3)CC2)cc1)c1ccc(B(O)O)cc1)c1ccccc1 [Compound 69] | statistically significant tumor growth inhibition
< 10 | < 10 | < 10 | > 90 | CC/C(=C(\c1ccc(B(O)O)cc1)c1ccc(N2CCN(C(=O)N3CCN(c4ccc5c(c4)CN([C@H]4CCC(=O)NC4=O)C5=O)CC3)CC2)cc1)c1ccccc1 [Compound 104, (S,Z)-(4-(1-(4-(4-(4-(2-(2,6-dioxopiperidin-3-yl)-1-oxoisoindolin-5-yl)piperazine-1-carbonyl)piperazin-1-yl)phenyl)-2-phenylbut-1-en-1-yl)phenyl)boronic acid] | –
< 10 | < 10 | < 10 | > 90 | CC/C(=C(\c1ccc(B(O)O)cc1)c1ccc(N2CCN(C(=O)N3CCN(c4ccc5c(c4)CN([C@@H]4CCC(=O)NC4=O)C5=O)CC3)CC2)cc1)c1ccccc1 [Compound 105] | –
< 10 | < 10 | < 10 | > 90 | CC/C(=C(/c1ccc(B(O)O)cc1)c1ccc(N2CCN(C(=O)N3CCN(c4ccc5c(c4)CN(C4CCC(=O)NC4=O)C5=O)CC3)CC2)cc1)c1ccccc1 (stereo not drawn) [Compound 106] | –
< 10 | < 10 | < 10 | > 90 | CC/C(=C(/c1ccc(B(O)O)cc1)c1ccc(N2CCN(C(=O)N3CCN(c4ccc5c(c4)CN([C@H]4CCC(=O)NC4=O)C5=O)CC3)CC2)cc1)c1ccccc1 [Compound 107, (S,E)-(4-(1-(4-(4-(4-(2-(2,6-dioxopiperidin-3-yl)-1-oxoisoindolin-5-yl)piperazine-1-carbonyl)piperazin-1-yl)phenyl)-2-phenylbut-1-en-1-yl)phenyl)boronic acid] | –
< 10 | < 10 | < 10 | > 90 | CC/C(=C(/c1ccc(B(O)O)cc1)c1ccc(N2CCN(C(=O)N3CCN(c4ccc5c(c4)CN([C@@H]4CCC(=O)NC4=O)C5=O)CC3)CC2)cc1)c1ccccc1 [Compound 108, (R,E)-(4-(1-(4-(4-(4-(2-(2,6-dioxopiperidin-3-yl)-1-oxoisoindolin-5-yl)piperazine-1-carbonyl)piperazin-1-yl)phenyl)-2-phenylbut-1-en-1-yl)phenyl)boronic acid] | –
< 10 | 10 to 50 | 10 to 50 | > 90 | CC/C(=C(\c1ccc(O)cc1)c1ccc(N2CCN(C(=O)N3CCC(N4CCN(c5ccc6c(c5)CN(C5CCC(=O)NC5=O)C6=O)CC4)CC3)CC2)cc1)c1ccccc1 (stereo not drawn) [Compound 109, (E)-3-(5-(4-(1-(4-(4-(1-(4-hydroxyphenyl)-2-phenylbut-1-en-1-yl)phenyl)piperazine-1-carbonyl)piperidin-4-yl)piperazin-1-yl)-1-oxoisoindolin-2-yl)piperidine-2,6-dione] | –
< 10 | 10 to 50 | 10 to 50 | > 90 | CC/C(=C(\c1ccc(B(O)O)cc1)c1ccc(N2CCN(C(=O)N3CCC(N4CCN(c5ccc6c(c5)CN(C5CCC(=O)NC5=O)C6=O)CC4)CC3)CC2)cc1)c1ccccc1 (stereo not drawn) [Compound 110, (Z)-(4-(1-(4-(4-(4-(4-(2-(2,6-dioxopiperidin-3-yl)-1-oxoisoindolin-5-yl)piperazin-1-yl)piperidine-1-carbonyl)piperazin-1-yl)phenyl)-2-phenylbut-1-en-1-yl)phenyl)boronic acid] | –
< 10 | 10 to 50 | 10 to 50 | > 90 | CC/C(=C(/c1ccc(O)cc1)c1ccc(N2CCN(C(=O)N3CCC(N4CCN(c5ccc6c(c5)CN(C5CCC(=O)NC5=O)C6=O)CC4)CC3)CC2)cc1)c1ccccc1 (stereo not drawn) [Compound 111, (Z)-3-(5-(4-(1-(4-(4-(1-(4-hydroxyphenyl)-2-phenylbut-1-en-1-yl)phenyl)piperazine-1-carbonyl)piperidin-4-yl)piperazin-1-yl)-1-oxoisoindolin-2-yl)piperidine-2,6-dione] | –
< 10 | 10 to 50 | 10 to 50 | > 90 | CC/C(=C(/c1ccc(B(O)O)cc1)c1ccc(N2CCN(C(=O)N3CCC(N4CCN(c5ccc6c(c5)CN(C5CCC(=O)NC5=O)C6=O)CC4)CC3)CC2)cc1)c1ccccc1 (stereo not drawn) [Compound 112, (E)-(4-(1-(4-(4-(4-(4-(2-(2,6-dioxopiperidin-3-yl)-1-oxoisoindolin-5-yl)piperazin-1-yl)piperidine-1-carbonyl)piperazin-1-yl)phenyl)-2-phenylbut-1-en-1-yl)phenyl)boronic acid] | –
< 10 | < 10 | < 10 | > 90 | CC/C(=C(\c1ccc(O)cc1)c1ccc(N2CCN(C(=O)N3CCC(CN4CCN(c5ccc6c(c5)CN(C5CCC(=O)NC5=O)C6=O)CC4)CC3)CC2)cc1)c1ccccc1 (stereo not drawn) [Compound 113, (E)-3-(5-(4-((1-(4-(4-(1-(4-hydroxyphenyl)-2-phenylbut-1-en-1-yl)phenyl)piperazine-1-carbonyl)piperidin-4-yl)methyl)piperazin-1-yl)-1-oxoisoindolin-2-yl)piperidine-2,6-dione] | –
< 10 | < 10 | < 10 | > 90 | CC/C(=C(\c1ccc(B(O)O)cc1)c1ccc(N2CCN(C(=O)N3CCC(CN4CCN(c5ccc6c(c5)CN(C5CCC(=O)NC5=O)C6=O)CC4)CC3)CC2)cc1)c1ccccc1 (stereo not drawn) [Compound 114, (Z)-(4-(1-(4-(4-(4-((4-(2-(2,6-dioxopiperidin-3-yl)-1-oxoisoindolin-5-yl)piperazin-1-yl)methyl)piperidine-1-carbonyl)piperazin-1-yl)phenyl)-2-phenylbut-1-en-1-yl)phenyl)boronic acid] | –
< 10 | < 10 | < 10 | > 90 | CC/C(=C(/c1ccc(O)cc1)c1ccc(N2CCN(C(=O)N3CCC(CN4CCN(c5ccc6c(c5)CN(C5CCC(=O)NC5=O)C6=O)CC4)CC3)CC2)cc1)c1ccccc1 (stereo not drawn) [Compound 115, (Z)-3-(5-(4-((1-(4-(4-(1-(4-hydroxyphenyl)-2-phenylbut-1-en-1-yl)phenyl)piperazine-1-carbonyl)piperidin-4-yl)methyl)piperazin-1-yl)-1-oxoisoindolin-2-yl)piperidine-2,6-dione] | –
< 10 | < 10 | < 10 | > 90 | CC/C(=C(/c1ccc(B(O)O)cc1)c1ccc(N2CCN(C(=O)N3CCC(CN4CCN(c5ccc6c(c5)CN(C5CCC(=O)NC5=O)C6=O)CC4)CC3)CC2)cc1)c1ccccc1 (stereo not drawn) [Compound 116, (E)-(4-(1-(4-(4-(4-((4-(2-(2,6-dioxopiperidin-3-yl)-1-oxoisoindolin-5-yl)piperazin-1-yl)methyl)piperidine-1-carbonyl)piperazin-1-yl)phenyl)-2-phenylbut-1-en-1-yl)phenyl)boronic acid] | –

— patent US20220348595A1, “COMPOUNDS AND METHODS FOR THE TARGETED DEGRADATION OF ESTROGEN RECEPTORS” (Endotarget Inc., priority 2021, published 2022)
